According to ChEMBL document CHEMBL3991601, “The target landscape of clinical kinase drugs” (Science, 2017):
Calls of active or inactive are those of the source. Rule as the data show it, for most assays here: actives have a measured Kd and inactives only a lower limit.

Legend:
[1] = molecular target: T1, Serine/threonine-protein kinase 3 (Homo sapiens, UniProt Q13188)
T1 sequence (Q13188 whole entry): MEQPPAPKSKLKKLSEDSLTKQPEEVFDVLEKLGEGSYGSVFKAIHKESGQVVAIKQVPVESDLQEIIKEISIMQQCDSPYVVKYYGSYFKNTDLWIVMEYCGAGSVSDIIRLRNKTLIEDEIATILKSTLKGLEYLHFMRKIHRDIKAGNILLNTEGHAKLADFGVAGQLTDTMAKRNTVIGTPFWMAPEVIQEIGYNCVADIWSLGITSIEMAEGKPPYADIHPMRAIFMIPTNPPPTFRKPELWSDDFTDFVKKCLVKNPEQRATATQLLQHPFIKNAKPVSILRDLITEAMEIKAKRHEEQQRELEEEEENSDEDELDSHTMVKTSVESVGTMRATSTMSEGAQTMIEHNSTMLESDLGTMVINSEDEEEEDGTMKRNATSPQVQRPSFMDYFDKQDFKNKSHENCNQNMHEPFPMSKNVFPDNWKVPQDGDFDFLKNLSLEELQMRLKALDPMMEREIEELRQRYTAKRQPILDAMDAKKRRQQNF

[2] = molecular target: T2, Ephrin type-B receptor 3 (Homo sapiens, UniProt P54753)
T2 sequence (P54753 whole entry): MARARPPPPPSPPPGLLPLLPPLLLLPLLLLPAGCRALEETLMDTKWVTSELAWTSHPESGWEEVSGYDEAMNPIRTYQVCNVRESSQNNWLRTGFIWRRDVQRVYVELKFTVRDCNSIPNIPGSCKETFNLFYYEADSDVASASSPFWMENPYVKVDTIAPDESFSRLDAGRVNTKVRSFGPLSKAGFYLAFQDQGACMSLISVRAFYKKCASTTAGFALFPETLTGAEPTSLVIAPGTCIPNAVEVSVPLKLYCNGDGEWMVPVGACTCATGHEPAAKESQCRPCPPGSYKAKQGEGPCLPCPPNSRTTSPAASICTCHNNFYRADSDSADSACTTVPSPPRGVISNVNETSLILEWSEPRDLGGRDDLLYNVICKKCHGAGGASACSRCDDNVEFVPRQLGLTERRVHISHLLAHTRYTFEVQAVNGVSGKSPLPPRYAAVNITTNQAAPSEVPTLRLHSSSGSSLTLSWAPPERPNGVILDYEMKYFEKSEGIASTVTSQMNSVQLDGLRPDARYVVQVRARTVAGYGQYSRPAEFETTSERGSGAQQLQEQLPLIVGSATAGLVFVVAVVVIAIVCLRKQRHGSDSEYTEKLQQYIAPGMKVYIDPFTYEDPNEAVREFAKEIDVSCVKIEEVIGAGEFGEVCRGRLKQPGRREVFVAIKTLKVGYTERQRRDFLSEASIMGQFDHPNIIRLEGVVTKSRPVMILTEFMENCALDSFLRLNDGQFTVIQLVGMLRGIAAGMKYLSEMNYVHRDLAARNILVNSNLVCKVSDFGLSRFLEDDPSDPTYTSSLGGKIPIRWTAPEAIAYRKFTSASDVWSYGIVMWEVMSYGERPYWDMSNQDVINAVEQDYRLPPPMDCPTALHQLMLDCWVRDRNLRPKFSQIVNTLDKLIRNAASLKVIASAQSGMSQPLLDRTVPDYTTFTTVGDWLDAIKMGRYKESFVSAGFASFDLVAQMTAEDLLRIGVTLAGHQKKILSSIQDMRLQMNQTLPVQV

[3] = molecular target: STE20-like serine/threonine-protein kinase (Homo sapiens, UniProt Q9H2G2)
[4] = molecular target: Ribosomal protein S6 kinase alpha-5 (Homo sapiens, UniProt O75582)
[5] = molecular target: Eukaryotic translation initiation factor 2-alpha kinase 1 (Homo sapiens, UniProt Q9BQI3)
[6] = molecular target: T3, Dynamin-like GTPase OPA1, mitochondrial (Homo sapiens, UniProt O60313)
T3 sequence (O60313 whole entry): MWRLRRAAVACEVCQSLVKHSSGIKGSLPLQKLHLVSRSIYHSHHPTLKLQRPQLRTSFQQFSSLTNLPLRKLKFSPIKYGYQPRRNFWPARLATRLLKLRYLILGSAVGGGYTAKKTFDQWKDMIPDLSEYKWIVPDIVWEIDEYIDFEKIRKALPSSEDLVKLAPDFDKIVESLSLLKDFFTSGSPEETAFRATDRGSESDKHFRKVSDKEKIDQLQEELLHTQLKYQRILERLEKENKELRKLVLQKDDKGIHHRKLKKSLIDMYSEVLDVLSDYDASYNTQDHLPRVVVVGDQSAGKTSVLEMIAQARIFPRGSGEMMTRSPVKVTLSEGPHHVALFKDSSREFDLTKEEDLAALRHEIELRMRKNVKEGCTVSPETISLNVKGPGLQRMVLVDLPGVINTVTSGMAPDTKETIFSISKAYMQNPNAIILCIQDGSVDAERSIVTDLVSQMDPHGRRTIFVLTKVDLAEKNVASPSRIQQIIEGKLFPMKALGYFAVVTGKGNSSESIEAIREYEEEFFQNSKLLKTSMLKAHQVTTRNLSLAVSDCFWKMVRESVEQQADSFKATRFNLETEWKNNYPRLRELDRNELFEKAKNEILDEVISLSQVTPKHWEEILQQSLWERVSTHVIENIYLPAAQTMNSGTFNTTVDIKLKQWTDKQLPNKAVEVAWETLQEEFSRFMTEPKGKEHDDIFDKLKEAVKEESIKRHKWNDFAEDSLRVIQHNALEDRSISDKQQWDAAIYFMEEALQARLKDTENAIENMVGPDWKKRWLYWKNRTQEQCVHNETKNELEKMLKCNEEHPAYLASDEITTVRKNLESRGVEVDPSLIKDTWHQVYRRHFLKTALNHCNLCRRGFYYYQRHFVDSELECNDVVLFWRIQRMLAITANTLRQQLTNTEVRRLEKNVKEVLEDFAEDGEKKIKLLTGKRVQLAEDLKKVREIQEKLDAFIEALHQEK

[7] = molecular target: Mitogen-activated protein kinase kinase kinase 4 (Homo sapiens, UniProt Q9Y6R4)
[8] = molecular target: Serine/threonine-protein kinase N2 (Homo sapiens, UniProt Q16513)
[9] = molecular target: Mitotic checkpoint serine/threonine-protein kinase BUB1 (Homo sapiens, UniProt O43683)
Also: in the data inactive means no Kd found up to 30 µM.

Sequence of Mitogen-activated protein kinase kinase kinase 4 (Q9Y6R4 whole entry): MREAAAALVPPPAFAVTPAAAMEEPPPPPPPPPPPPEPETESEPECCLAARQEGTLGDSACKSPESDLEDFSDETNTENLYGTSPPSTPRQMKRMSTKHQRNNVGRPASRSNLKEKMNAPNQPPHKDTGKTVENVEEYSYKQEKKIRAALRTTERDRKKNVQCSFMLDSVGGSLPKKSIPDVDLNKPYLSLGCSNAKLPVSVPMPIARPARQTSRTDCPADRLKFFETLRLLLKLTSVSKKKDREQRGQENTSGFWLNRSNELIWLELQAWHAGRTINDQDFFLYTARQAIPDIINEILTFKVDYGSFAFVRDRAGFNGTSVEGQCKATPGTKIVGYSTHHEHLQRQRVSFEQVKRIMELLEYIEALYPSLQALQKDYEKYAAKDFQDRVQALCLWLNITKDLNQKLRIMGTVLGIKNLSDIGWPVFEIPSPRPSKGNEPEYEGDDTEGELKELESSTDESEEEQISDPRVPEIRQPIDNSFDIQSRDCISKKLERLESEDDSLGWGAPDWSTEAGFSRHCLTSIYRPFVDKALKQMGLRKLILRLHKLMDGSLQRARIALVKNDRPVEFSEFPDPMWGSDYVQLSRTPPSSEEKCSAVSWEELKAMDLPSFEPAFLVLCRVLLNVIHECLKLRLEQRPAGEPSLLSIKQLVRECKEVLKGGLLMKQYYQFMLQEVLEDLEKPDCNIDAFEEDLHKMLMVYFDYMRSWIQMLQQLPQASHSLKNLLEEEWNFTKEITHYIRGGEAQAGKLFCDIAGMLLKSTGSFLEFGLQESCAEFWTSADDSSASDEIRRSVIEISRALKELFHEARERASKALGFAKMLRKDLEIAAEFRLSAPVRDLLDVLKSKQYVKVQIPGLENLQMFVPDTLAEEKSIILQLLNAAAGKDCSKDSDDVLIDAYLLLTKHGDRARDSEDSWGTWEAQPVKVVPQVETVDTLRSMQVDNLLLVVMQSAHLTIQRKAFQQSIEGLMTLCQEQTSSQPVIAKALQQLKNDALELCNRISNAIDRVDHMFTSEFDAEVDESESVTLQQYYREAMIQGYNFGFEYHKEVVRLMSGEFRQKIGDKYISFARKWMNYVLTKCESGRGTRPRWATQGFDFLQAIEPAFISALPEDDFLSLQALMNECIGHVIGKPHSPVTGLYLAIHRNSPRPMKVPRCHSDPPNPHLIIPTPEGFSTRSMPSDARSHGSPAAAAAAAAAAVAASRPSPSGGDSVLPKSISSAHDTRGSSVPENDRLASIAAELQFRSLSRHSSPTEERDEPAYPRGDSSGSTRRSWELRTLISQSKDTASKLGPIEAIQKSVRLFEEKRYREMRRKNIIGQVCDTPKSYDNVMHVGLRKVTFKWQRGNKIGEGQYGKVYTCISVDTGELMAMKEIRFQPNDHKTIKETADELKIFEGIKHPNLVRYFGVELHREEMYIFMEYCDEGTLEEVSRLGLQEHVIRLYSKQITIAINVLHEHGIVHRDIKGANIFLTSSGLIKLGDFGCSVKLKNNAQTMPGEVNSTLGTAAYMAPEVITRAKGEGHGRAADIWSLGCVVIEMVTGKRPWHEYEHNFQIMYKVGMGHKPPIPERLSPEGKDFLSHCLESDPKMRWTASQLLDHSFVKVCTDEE
Sequence of STE20-like serine/threonine-protein kinase (Q9H2G2 whole entry): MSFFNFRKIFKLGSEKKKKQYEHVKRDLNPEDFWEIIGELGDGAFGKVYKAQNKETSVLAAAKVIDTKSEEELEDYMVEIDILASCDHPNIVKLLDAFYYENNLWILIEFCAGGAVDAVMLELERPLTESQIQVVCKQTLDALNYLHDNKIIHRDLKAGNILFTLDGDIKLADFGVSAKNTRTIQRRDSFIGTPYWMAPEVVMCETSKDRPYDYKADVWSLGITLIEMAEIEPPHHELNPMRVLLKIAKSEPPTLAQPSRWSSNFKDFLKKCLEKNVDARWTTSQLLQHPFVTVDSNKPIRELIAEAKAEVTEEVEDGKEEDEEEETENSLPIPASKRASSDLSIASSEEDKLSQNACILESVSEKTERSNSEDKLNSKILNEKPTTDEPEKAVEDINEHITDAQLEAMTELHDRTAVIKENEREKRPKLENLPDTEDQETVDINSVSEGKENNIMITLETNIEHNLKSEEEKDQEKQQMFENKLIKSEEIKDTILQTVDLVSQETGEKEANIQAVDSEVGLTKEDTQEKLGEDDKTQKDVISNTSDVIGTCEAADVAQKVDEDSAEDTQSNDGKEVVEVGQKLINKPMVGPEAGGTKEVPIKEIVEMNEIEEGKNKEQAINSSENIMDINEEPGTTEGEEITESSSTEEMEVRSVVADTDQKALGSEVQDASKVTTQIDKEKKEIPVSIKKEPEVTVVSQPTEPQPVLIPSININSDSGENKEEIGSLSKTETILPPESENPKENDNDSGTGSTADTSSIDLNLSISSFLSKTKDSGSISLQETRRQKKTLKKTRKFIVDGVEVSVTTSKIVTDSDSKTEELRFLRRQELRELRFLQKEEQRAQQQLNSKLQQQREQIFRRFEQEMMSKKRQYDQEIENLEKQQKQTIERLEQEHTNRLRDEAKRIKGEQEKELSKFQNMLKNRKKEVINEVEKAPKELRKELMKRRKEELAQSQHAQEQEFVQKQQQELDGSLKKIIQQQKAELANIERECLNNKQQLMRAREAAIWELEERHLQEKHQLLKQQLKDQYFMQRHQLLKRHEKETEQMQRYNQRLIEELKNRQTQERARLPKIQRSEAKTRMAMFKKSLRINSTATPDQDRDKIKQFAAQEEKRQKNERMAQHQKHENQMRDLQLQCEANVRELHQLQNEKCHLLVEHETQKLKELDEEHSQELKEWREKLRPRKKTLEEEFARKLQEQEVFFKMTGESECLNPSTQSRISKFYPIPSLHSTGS
Sequence of Eukaryotic translation initiation factor 2-alpha kinase 1 (Q9BQI3 whole entry): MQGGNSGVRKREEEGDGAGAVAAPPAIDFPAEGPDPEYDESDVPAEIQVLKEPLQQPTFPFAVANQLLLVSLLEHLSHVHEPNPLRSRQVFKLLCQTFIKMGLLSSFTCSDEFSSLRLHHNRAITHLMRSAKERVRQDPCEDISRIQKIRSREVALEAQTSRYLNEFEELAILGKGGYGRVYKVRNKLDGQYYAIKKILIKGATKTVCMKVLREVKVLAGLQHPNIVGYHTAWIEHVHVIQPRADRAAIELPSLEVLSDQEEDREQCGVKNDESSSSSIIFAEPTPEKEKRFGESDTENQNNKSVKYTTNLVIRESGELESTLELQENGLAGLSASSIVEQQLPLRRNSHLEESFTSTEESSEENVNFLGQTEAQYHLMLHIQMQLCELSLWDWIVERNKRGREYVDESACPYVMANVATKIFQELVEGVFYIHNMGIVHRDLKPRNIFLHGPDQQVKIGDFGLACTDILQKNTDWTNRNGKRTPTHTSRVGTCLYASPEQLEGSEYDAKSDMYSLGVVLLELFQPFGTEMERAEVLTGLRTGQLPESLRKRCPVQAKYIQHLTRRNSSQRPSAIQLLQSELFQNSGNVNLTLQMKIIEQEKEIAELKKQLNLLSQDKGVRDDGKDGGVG
Sequence of Serine/threonine-protein kinase N2 (Q16513 whole entry): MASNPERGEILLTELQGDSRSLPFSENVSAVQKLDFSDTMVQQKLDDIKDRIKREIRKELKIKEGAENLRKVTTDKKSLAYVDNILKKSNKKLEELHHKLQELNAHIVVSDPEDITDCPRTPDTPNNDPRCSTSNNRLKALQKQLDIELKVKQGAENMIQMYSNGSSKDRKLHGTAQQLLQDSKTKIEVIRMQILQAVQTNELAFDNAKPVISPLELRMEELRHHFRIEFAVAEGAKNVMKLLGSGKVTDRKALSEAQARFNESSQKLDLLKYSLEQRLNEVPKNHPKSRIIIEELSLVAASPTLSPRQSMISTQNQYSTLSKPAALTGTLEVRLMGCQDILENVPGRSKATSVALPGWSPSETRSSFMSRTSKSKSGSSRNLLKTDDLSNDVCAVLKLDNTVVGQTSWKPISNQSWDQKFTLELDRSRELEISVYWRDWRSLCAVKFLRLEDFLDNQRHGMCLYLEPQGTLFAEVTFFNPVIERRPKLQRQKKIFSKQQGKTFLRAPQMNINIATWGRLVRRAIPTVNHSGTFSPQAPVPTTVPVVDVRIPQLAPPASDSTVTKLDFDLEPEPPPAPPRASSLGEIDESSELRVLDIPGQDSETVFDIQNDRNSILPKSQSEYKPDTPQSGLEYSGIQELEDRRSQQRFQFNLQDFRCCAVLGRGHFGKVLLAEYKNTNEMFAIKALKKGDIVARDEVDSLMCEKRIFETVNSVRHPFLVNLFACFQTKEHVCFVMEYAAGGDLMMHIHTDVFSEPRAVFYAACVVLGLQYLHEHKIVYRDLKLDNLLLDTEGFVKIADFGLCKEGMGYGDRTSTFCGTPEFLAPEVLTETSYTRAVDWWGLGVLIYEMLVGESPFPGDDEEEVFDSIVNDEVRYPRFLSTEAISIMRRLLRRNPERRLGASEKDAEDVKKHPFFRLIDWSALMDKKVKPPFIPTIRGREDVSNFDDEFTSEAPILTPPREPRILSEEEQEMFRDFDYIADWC

Kd [1] | Kd [2] | Kd [3] | Kd [4] | Kd [5] | Kd [6] | Kd [7] | Kd [8] | Kd [9] | SMILES
> 30 µM (inactive) | 5.5 µM (active) | 36.3 µM (active) | > 30 µM (inactive) | > 30 µM (inactive) | > 30 µM (inactive) | > 30 µM (inactive) | > 30 µM (inactive) | > 30 µM (inactive) | COc1cc(N2CCC(N3CCN(C)CC3)CC2)ccc1Nc1ncnc(Nc2ccccc2S(=O)(=O)C(C)C)n1 [ASP-3026]
> 30 µM (inactive) | > 30 µM (inactive) | > 30 µM (inactive) | > 30 µM (inactive) | 0.17 µM (active) | > 30 µM (inactive) | > 30 µM (inactive) | > 30 µM (inactive) | > 30 µM (inactive) | COc1cc(CCc2cc(NC(=O)c3ccc(N4C[C@@H](C)N[C@@H](C)C4)cc3)n[nH]2)cc(OC)c1 [AZD-4547]
– | > 30 µM (inactive) | – | – | > 30 µM (inactive) | > 30 µM (inactive) | > 30 µM (inactive) | – | 0.111 µM (active) | Cc1nc(N)sc1-c1ccnc(Nc2ccc(N3CCOCC3)cc2)n1 [CYC-116]
– | > 30 µM (inactive) | > 30 µM (inactive) | > 30 µM (inactive) | – | > 30 µM (inactive) | > 30 µM (inactive) | – | > 30 µM (inactive) | Cc1cc(Nc2cc(N3CCN(C)CC3)nc(/C=C/c3ccccc3)n2)n[nH]1 [ENMD-2076]
– | – | – | – | – | > 30 µM (inactive) | – | – | > 30 µM (inactive) | CCn1c(-c2nonc2N)nc2c(C#CC(C)(C)O)ncc(OC[C@H]3CCCNC3)c21 [GSK-690693]

Second part, the compound before the results:

SMILES | Kd [1] | Kd [2] | Kd [3] | Kd [4] | Kd [5] | Kd [6] | Kd [7] | Kd [8] | Kd [9]
N[C@@H]1CCCN(c2c(/C=C3\SC(=O)NC3=O)cccc2-c2ccccc2)C1 | > 30 µM (inactive) | > 30 µM (inactive) | > 30 µM (inactive) | > 30 µM (inactive) | > 30 µM (inactive) | > 30 µM (inactive) | > 30 µM (inactive) | > 30 µM (inactive) | > 30 µM (inactive)
Cc1ccc(S(=O)(=O)Nc2nc3ccccc3nc2Nc2ccc3nsnc3c2)cc1 | > 30 µM (inactive) | > 30 µM (inactive) | > 30 µM (inactive) | > 30 µM (inactive) | > 30 µM (inactive) | > 30 µM (inactive) | > 30 µM (inactive) | > 30 µM (inactive) | > 30 µM (inactive)
CN1CC[C@@H](c2c(O)cc(O)c3c(=O)cc(-c4ccccc4Cl)oc23)[C@@H]1CO | > 30 µM (inactive) | > 30 µM (inactive) | > 30 µM (inactive) | > 30 µM (inactive) | > 30 µM (inactive) | > 30 µM (inactive) | > 30 µM (inactive) | > 30 µM (inactive) | > 30 µM (inactive)
Cc1cc(-c2cc(O)ccc2Cl)cc2nnc(Nc3ccc(OCCN4CCCC4)cc3)nc12 | > 30 µM (inactive) | 0.002 µM (active) | > 30 µM (inactive) | > 30 µM (inactive) | > 30 µM (inactive) | > 30 µM (inactive) | > 30 µM (inactive) | > 30 µM (inactive) | > 30 µM (inactive)
CCN1CCN(Cc2ccc(-c3cc4c(N[C@H](C)c5ccccc5)ncnc4[nH]3)cc2)CC1 [AEE-788] | > 30 µM (inactive) | > 30 µM (inactive) | 99.2 µM (active) | > 30 µM (inactive) | > 30 µM (inactive) | > 30 µM (inactive) | 2.19 µM (active) | > 30 µM (inactive) | > 30 µM (inactive)
Cn1ncc(Cl)c1-c1cc(C(=O)N[C@H](CN)Cc2cccc(F)c2)sc1Cl [AFURESERTIB] | > 30 µM (inactive) | > 30 µM (inactive) | > 30 µM (inactive) | > 30 µM (inactive) | > 30 µM (inactive) | > 30 µM (inactive) | > 30 µM (inactive) | > 30 µM (inactive) | > 30 µM (inactive)
CNS(=O)(=O)Nc1nccc(Cc2c(C)c3ccc(Oc4ncccn4)cc3oc2=O)c1F [AVUTOMETINIB] | > 30 µM (inactive) | > 30 µM (inactive) | > 30 µM (inactive) | > 30 µM (inactive) | > 30 µM (inactive) | > 30 µM (inactive) | > 30 µM (inactive) | > 30 µM (inactive) | > 30 µM (inactive)
CCS(=O)(=O)N1CC(CC#N)(n2cc(-c3ncnc4[nH]ccc34)cn2)C1 [BARICITINIB] | > 30 µM (inactive) | > 30 µM (inactive) | > 30 µM (inactive) | > 30 µM (inactive) | 0.335 µM (active) | > 30 µM (inactive) | > 30 µM (inactive) | – | –
CN1CCN(c2ccc3nc(-c4c(N)c5c(F)cccc5[nH]c4=O)[nH]c3c2)CC1 [DOVITINIB] | – | – | – | – | – | > 30 µM (inactive) | – | – | > 30 µM (inactive)
Cc1cn(-c2cc(NC(=O)c3ccc(C)c(Nc4nccc(-c5cccnc5)n4)c3)cc(C(F)(F)F)c2)cn1 [NILOTINIB] | – | – | – | – | – | > 30 µM (inactive) | – | – | > 30 µM (inactive)
C[C@@H](c1ccc2nccn2c1)n1nnc2ncc(-c3cnn(C)c3)nc21 [SAVOLITINIB] | > 30 µM (inactive) | > 30 µM (inactive) | > 30 µM (inactive) | > 30 µM (inactive) | > 30 µM (inactive) | > 30 µM (inactive) | > 30 µM (inactive) | > 30 µM (inactive) | –
O=C(Nc1cccc(Cl)c1)Nc1ncc(CCNc2ncnc3ccsc23)s1 [SNS-314] | – | > 30 µM (inactive) | – | > 30 µM (inactive) | > 30 µM (inactive) | > 30 µM (inactive) | > 30 µM (inactive) | – | –
Nc1nc(N)c2nc(-c3cccc(O)c3)c(-c3cccc(O)c3)nc2n1 [TG100-115] | – | – | – | – | – | > 30 µM (inactive) | – | – | > 30 µM (inactive)
CN1N=C(N)c2cn([C@@H]3O[C@H](COP(=O)(O)O)[C@@H](O)[C@H]3O)c3ncnc1c23 [TRICIRIBINE PHOSPHATE] | > 30 µM (inactive) | > 30 µM (inactive) | > 30 µM (inactive) | > 30 µM (inactive) | – | > 30 µM (inactive) | > 30 µM (inactive) | > 30 µM (inactive) | > 30 µM (inactive)
